Test systems include A549 NSCLC; NCI-H522 lung; K-562 leukemia; HOP-92 NSCLC; SK-MEL-5 melanoma; CCRF-CEM leukemia; ACHN renal; KM12 colon; SN12C renal; SF-539 CNS.
Test in all cases: NCI tumour cell line growth inhibition, 48 h

The structures appear in SMILES notation.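 Cultured in 96-well plates, cells were exposed to test compound for 48 hours across five concentrations. GI50 marks 50% less growth. At the TGI there is no net growth.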 Where only a bound is given, the exact number is not on record here.

In the case of `CSc1nc2ccc(C)cc2cc1/C=C1/C=C(c2ccccc2)NC1=O`, the GI50 in the test with A549 NSCLC was 3.54 µM; in the test on NCI-H522 lung, 3.53 µM; in the test with K-562 leukemia it was 8.83 µM; in the test on HOP-92 NSCLC, 2.85 µM; in the test with SK-MEL-5 melanoma, 21.3 µM; in the test with CCRF-CEM leukemia it was 26.4 µM. Further, the GI50 with ACHN renal is 1.04 µM; in the test on KM12 colon, 3.13 µM; in the test on SN12C renal, 4.53 µM; with SF-539 CNS, 2.35 µM. Besides, the TGI in the test with A549 NSCLC was 30.7 µM; with NCI-H522 lung, 42.5 µM; in the test on K-562 leukemia it was more than 100 µM; in the test with HOP-92 NSCLC it was 13.4 µM; in the test on SK-MEL-5 melanoma, more than 100 µM; with CCRF-CEM leukemia, more than 100 µM. The TGI in the test with ACHN renal was 5.54 µM; in the test on KM12 colon, 82.9 µM; in the test on SN12C renal it was 32.3 µM; in the test with SF-539 CNS it was 9.66 µM.

Turning to `COC(=O)C#CC(N)=O`, the TGI in the test on A549 NSCLC is more than 100 µM; with NCI-H522 lung it was more than 100 µM; in the test on K-562 leukemia, 60.1 µM; in the test on HOP-92 NSCLC, 40.6 µM; in the test on SK-MEL-5 melanoma it was more than 100 µM; in the test on CCRF-CEM leukemia it was 36.4 µM. Besides, the TGI in the test with ACHN renal, in the test with KM12 colon, with SN12C renal and in the test with SF-539 CNS was more than 100 µM throughout.

Consider `COC(=O)c1cc(C)[nH]c2c(C)cc3nc4ccccc4c3c12`, for which the GI50 in the test with A549 NSCLC is 10.2 µM; in the test with NCI-H522 lung, 3.23 µM; with K-562 leukemia it was 4.34 µM; in the test on HOP-92 NSCLC it was 5.85 µM; in the test with SK-MEL-5 melanoma it was 5.97 µM; in the test on CCRF-CEM leukemia, 5.23 µM. For the same compound, the GI50 is 11.6 µM in the test with ACHN renal, 4.94 µM with KM12 colon, 11.7 µM in the test on SN12C renal and 12.4 µM with SF-539 CNS. Moreover, the TGI in the test on A549 NSCLC worked out at 22.8 µM; in the test on NCI-H522 lung, 14.5 µM; in the test with K-562 leukemia, 46.1 µM; with HOP-92 NSCLC, 20.7 µM; with SK-MEL-5 melanoma, 19.2 µM; in the test with CCRF-CEM leukemia, 86.4 µM. For the same compound, the TGI is 25.4 µM with ACHN renal, 18.1 µM in the test on KM12 colon, 30.8 µM with SN12C renal and 26.4 µM in the test on SF-539 CNS.

On to `C=C1C(=O)OC2(C)CCC1CC1OC1(C)CCC=C(C)CCC2O` (stereo not given), for which the TGI with A549 NSCLC, with NCI-H522 lung, in the test on K-562 leukemia, in the test on HOP-92 NSCLC, in the test with SK-MEL-5 melanoma and with CCRF-CEM leukemia was more than 100 µM each time. For the same compound, the TGI in the test with ACHN renal, in the test on KM12 colon, with SN12C renal and in the test with SF-539 CNS was more than 100 µM throughout.

As for `COc1cc2c(=O)n(CC3CCCCC3)c3c4cc[nH]c4ncc3c2cc1OC`, the GI50 with A549 NSCLC was 5 µM; in the test on NCI-H522 lung it was 1.34 µM; with K-562 leukemia it was 0.187 µM; in the test with HOP-92 NSCLC it was 0.137 µM; with SK-MEL-5 melanoma it was 4.37 µM; with CCRF-CEM leukemia it was 2.54 µM. For the same compound, the GI50 in the test with ACHN renal is 2.16 µM; in the test with KM12 colon it was 0.0362 µM; in the test on SN12C renal it was 1.46 µM; in the test with SF-539 CNS, 0.681 µM. The TGI in the test with A549 NSCLC is 16.9 µM; with NCI-H522 lung, 18.3 µM; with K-562 leukemia, 15.8 µM; in the test with HOP-92 NSCLC, 2.78 µM; in the test with SK-MEL-5 melanoma, 25.9 µM; in the test with CCRF-CEM leukemia it was more than 50 µM. Further, the TGI in the test on ACHN renal was 10.4 µM; in the test on KM12 colon, 34.9 µM; in the test with SN12C renal, 11.6 µM; in the test on SF-539 CNS it was 3.08 µM.

Consider `CCCCCCCCc1cc(O)ccc1O`, for which the GI50 with A549 NSCLC was 28.6 µM; with NCI-H522 lung, 5.65 µM; in the test with K-562 leukemia, 14.9 µM; in the test on HOP-92 NSCLC, 4.65 µM; in the test on SK-MEL-5 melanoma, 17 µM; with CCRF-CEM leukemia, 4.09 µM. Further, the GI50 is 20.4 µM with ACHN renal, 21.4 µM in the test with KM12 colon, 14.3 µM with SN12C renal and 15.4 µM in the test with SF-539 CNS. Moreover, the TGI is more than 100 µM in the test with A549 NSCLC; 25.3 µM with NCI-H522 lung; 67.5 µM with K-562 leukemia; 21.1 µM in the test on HOP-92 NSCLC; 30.7 µM in the test with SK-MEL-5 melanoma; 33.3 µM in the test on CCRF-CEM leukemia. In addition, the TGI with ACHN renal turned out to be 50.9 µM; in the test with KM12 colon, 51.6 µM; in the test on SN12C renal it was 27.4 µM; in the test with SF-539 CNS, 28.8 µM.

For `O=C(N/C(=C\c1ccc(F)cc1)c1nc2ccccc2[nH]1)c1ccccc1`, the TGI in the test with A549 NSCLC, in the test with NCI-H522 lung, with K-562 leukemia, in the test on HOP-92 NSCLC, in the test on SK-MEL-5 melanoma and in the test with CCRF-CEM leukemia was more than 100 µM throughout. Further, the TGI in the test on ACHN renal, in the test with KM12 colon, in the test with SN12C renal and in the test with SF-539 CNS was more than 100 µM each time.
